Test results from BindingDB's records for doi:10.1016/0960-894X(96)00010-8 (1996).

Assay: Inhibition of voltage sensitive calcium channel of embryonic chick dorsal root ganglion (DRG) cells

IC50: 32 µM
SMILES: COc1ccc(OC)c(-n2c(N)nc3cc(C(F)(F)F)ccc32)c1 [1-(2,5-Dimethoxy-phenyl)-5-trifluoromethyl-1H-benzoimidazol-2-ylamine]
